In PMC8236452, “Pharmacokinetics and safety of rucaparib in patients with advanced solid tumors and hepatic impairment” (Cancer Chemotherapy and Pharmacology, 2021):

Key:
[1] = Plasma pharmacokinetics after a single oral dose of rucaparib 600 mg in patients with advanced solid tumors, by hepatic function group; conditions: for AUC0–last, Geometric LS means / Cmax, Geometric LS means: ANOVA; for AUC0–inf, GM / AUC0–inf, Mean (SD) / AUC0–inf, Median (min–max) / AUC0–last, GM / AUC0–last, Mean (SD) / AUC0–last, Median (min–max) / Cmax, GM / Cmax, Mean (SD) / Cmax, Median (min–max) / tmax, Median (min–max): single oral rucaparib 600 mg
Experimental: (§1) In Part 1, patients received a single oral dose of rucaparib 600 mg on day 1; PK samples were collected and safety monitored through day 7.
(§2) Sample collection, processing, and shipping were conducted according to standardized protocols shared across study sites. Plasma samples were collected for PK analysis at the predose assessment and at 1, 2, 3, 4, 8, 12, 24, 48, 72, 96, 120, and 144 h postdose. A predose urine sample was collected less than 12 h prior to study drug administration. Total urine was collected 0–12 h and 12–24 h postdose. Total (bound and unbound) concentrations of rucaparib and its metabolite M324 in plasma and urine samples were determined by Q Squared Solutions BioSciences (Ithaca, NY, USA) using validated liquid chromatography mass spectrometry/mass spectrometry methods. Stable deuterium-labeled analytes were used as internal standards. The assay calibration ranges for plasma samples were 5–10,000 ng/mL for rucaparib and 1–1000 ng/mL for M324 with lower limits of quantification (LLOQ) of 5.00 and 1.00 ng/mL, respectively. For urine samples, the calibration range was 500–50,000 ng/mL for both rucaparib and M324, with a LLOQ of 500 ng/mL for both analytes. The precision was within 9.3% CV, and the accuracy was within ± 6.2%.
(§3) PK parameters were estimated from the concentration–time profiles. Actual elapsed time after dosing was used to estimate plasma PK parameters based on noncompartmental methods using Phoenix® WinNonlin® version 8.1.0 (Certara USA, Inc., Princeton, NJ, USA). […] Exploratory PK parameters for M324 calculated based on plasma and urine concentration-time data were Cmax, AUC0–last, AUC0–inf, t1/2, tmax, Ae0–24, and CLR, as data allowed.
(§4) PK parameters were calculated by noncompartmental analysis, analyzed using descriptive statistics, and presented by hepatic functional status. Analysis of variance (ANOVA) was used to compare PK parameters (e.g., Cmax, AUC0–last, and AUC0–inf) between the normal hepatic function group and the moderate hepatic impairment group per NCI-ODWG criteria. PK values were log-transformed before analysis. Baseline covariates (e.g., creatinine clearance [CLcr], sex, age, BMI, and ECOG PS) were tested for any significant effect (P value < 0.05). Geometric least-squares means were used to calculate the ratios of the PK parameters in the hepatic impairment group to those in the control group, along with 90% confidence intervals (CIs). The Wilcoxon rank-sum test was used to compare tmax values between the two groups, and estimates of the median differences were determined, along with 90% CIs. In addition, the relationships between log-transformed PK parameters (AUC0–last, AUC0–inf, Cmax) for rucaparib and M324 and hepatic function parameters (bilirubin and aspartate aminotransferase [AST]) relevant to the classification of hepatic impairment according to NCI-ODWG were explored by a linear regression approach.

[2] = human, in vivo
Experimental: as §1, §2, §3, §4

[3] = ref unpublished results; cited from earlier work
[4] = cited from earlier work
PARP [5] = tested on: PARP; set-up: method as in earlier work; conditions: cited from earlier work
PARP [6] = conditions: cited from earlier work
[7] = Urine pharmacokinetics (Ae0–24, CLR) after a single oral dose of rucaparib 600 mg in patients with advanced solid tumors; type: in vivo, human; conditions: single oral rucaparib 600 mg; for Ae0–24, GM / Ae0–24, Mean (SD) / Ae0–24, Median (min–max): urine
Source text: Stable deuterium-labeled analytes were used as internal standards.
PK parameters were estimated from the concentration–time profiles.

[8] = NCI-ODWG moderate hepatic impairment (n = 8)
[9] = NCI-ODWG normal hepatic function (n = 8)
[10] = Child–Pugh mild hepatic impairment
[11] = Child–Pugh moderate hepatic impairment
[12] = Child–Pugh severe hepatic impairment
[13] = NCI-ODWG moderate hepatic impairment
[14] = NCI-ODWG normal hepatic function
[15] = linear regression of log-transformed PK parameter on hepatic function parameter (NCI-ODWG)

Compound: O=C(O)c1ccc(-c2[nH]c3cc(F)cc4c3c2CCNC4=O)cc1 [M324]
- AUC0–last, Geometric LS means [1, 8]: 5930 h⋅ng/mL
- Cmax, Geometric LS means [1, 8]: 76.7 ng/mL
- AUC0–last, Geometric LS means [1, 9]: 4000 h⋅ng/mL
- Cmax, Geometric LS means [1, 9]: 72.7 ng/mL
- AUC0–inf, GM [1, 10]: 5590 h⋅ng/mL
- AUC0–inf, Mean (SD) [1, 10]: 5800 (1720) h⋅ng/mL
- AUC0–inf, Median (min–max) [1, 10]: 5700 (3960–8340) h⋅ng/mL
- AUC0–last, GM [1, 10]: 4740 h⋅ng/mL
- AUC0–last, Mean (SD) [1, 10]: 5070 (1910) h⋅ng/mL
- AUC0–last, Median (min–max) [1, 10]: 5130 (2330–7890) h⋅ng/mL
- Cmax, GM [1, 10]: 97.9 ng/mL
- Cmax, Mean (SD) [1, 10]: 111 (62.9) ng/mL
- Cmax, Median (min–max) [1, 10]: 98.7 (42.7–235) ng/mL
- tmax, Median (min–max) [1, 10]: 4.00 (3.00–24.0) h
- AUC0–inf, GM [1, 11]: 3580 h⋅ng/mL
- AUC0–inf, Mean (SD) [1, 11]: 3840 (1590) h⋅ng/mL
- AUC0–inf, Median (min–max) [1, 11]: 4190 (2100–5230) h⋅ng/mL
- AUC0–last, GM [1, 11]: 4550 h⋅ng/mL
- AUC0–last, Mean (SD) [1, 11]: 5690 (4710) h⋅ng/mL
- AUC0–last, Median (min–max) [1, 11]: 3810 (1930–15,600) h⋅ng/mL
- Cmax, GM [1, 11]: 57.4 ng/mL
- Cmax, Mean (SD) [1, 11]: 64.1 (33.1) ng/mL
- Cmax, Median (min–max) [1, 11]: 50.9 (28.9–118) ng/mL
- tmax, Median (min–max) [1, 11]: 23.9 (4.03–72.0) h
- AUC0–last, GM [1, 12]: 6840 h⋅ng/mL
- AUC0–last, Mean (SD) [1, 12]: 15,900 (20,200) h⋅ng/mL
- AUC0–last, Median (min–max) [1, 12]: 15,900 (1550–30,200) h⋅ng/mL
- Cmax, GM [1, 12]: 72.5 ng/mL
- Cmax, Mean (SD) [1, 12]: 164 (208) ng/mL
- Cmax, Median (min–max) [1, 12]: 164 (16.9–311) ng/mL
- tmax, Median (min–max) [1, 12]: 73.5 (2.97–144) h
- AUC0–inf, GM [1, 13]: 4960 h⋅ng/mL
- AUC0–inf, Mean (SD) [1, 13]: 4990 (720) h⋅ng/mL
- AUC0–inf, Median (min–max) [1, 13]: 5230 (4190–5570) h⋅ng/mL
- AUC0–last, GM [1, 13]: 5930 h⋅ng/mL
- AUC0–last, Mean (SD) [1, 13]: 8940 (9600) h⋅ng/mL
- AUC0–last, Median (min–max) [1, 13]: 4760 (1550–30,200) h⋅ng/mL
- Cmax, GM [1, 13]: 76.7 ng/mL
- Cmax, Mean (SD) [1, 13]: 105 (91.8) ng/mL
- Cmax, Median (min–max) [1, 13]: 83.7 (16.9–311) ng/mL
- tmax, Median (min–max) [1, 13]: 30.0 (2.97–144) h
- AUC0–inf, GM [1, 14]: 4750 h⋅ng/mL
- AUC0–inf, Mean (SD) [1, 14]: 5220 (2300) h⋅ng/mL
- AUC0–inf, Median (min–max) [1, 14]: 4930 (2100–8340) h⋅ng/mL
- AUC0–last, GM [1, 14]: 4000 h⋅ng/mL
- AUC0–last, Mean (SD) [1, 14]: 4450 (2130) h⋅ng/mL
- AUC0–last, Median (min–max) [1, 14]: 3810 (1930–7890) h⋅ng/mL
- Cmax, GM [1, 14]: 72.7 ng/mL
- Cmax, Mean (SD) [1, 14]: 90.1 (67.4) ng/mL
- Cmax, Median (min–max) [1, 14]: 74.5 (28.9–235) ng/mL
- tmax, Median (min–max) [1, 14]: 10.1 (3.00–24.0) h
- Slope estimate (90% CI), AUC0-last vs AST [1, 15]: 0.001 (–0.001 to 0.004)
- Slope estimate (90% CI), AUC0-last vs Bilirubin [1, 15]: –0.004 (–0.018 to 0.011)
- Slope estimate (90% CI), Cmax vs AST [1, 15]: 0 (–0.002 to 0.003)
- Slope estimate (90% CI), Cmax vs Bilirubin [1, 15]: –0.007 (–0.022 to 0.007)
- AUC0–last, Geometric mean ratio Moderate/normal (90% CI) [2]: 1.483 (0.766–2.868)
- Cmax, Geometric mean ratio Moderate/normal (90% CI) [2]: 1.055 (0.529–2.105)
- plasma protein binding [3]: 91%
- formation of M324, share of total clearance of rucaparib [4]: ~ 1/3
- activity in in vitro target binding affinity and cytotoxicity assay (PARP [5]): inactive
- biological activity, in vitro PARP inhibition data (PARP [6]): not biologically active
- CLR, GM [7, 10]: 119 mL/min
- CLR, Mean (SD) [7, 10]: 121 (26.2) mL/min
- CLR, Median (min–max) [7, 10]: 114 (94.7–161) mL/min
- CLR, GM [7, 11]: 68.5 mL/min
- CLR, Mean (SD) [7, 11]: 90.5 (55.6) mL/min
- CLR, Median (min–max) [7, 11]: 104 (12.7–163) mL/min
- CLR, GM [7, 12]: 24.8 mL/min
- CLR, Mean (SD) [7, 12]: 39.3 (43.1) mL/min
- CLR, Median (min–max) [7, 12]: 39.3 (8.84–69.8) mL/min
- CLR, GM [7, 13]: 47.7 mL/min
- CLR, Mean (SD) [7, 13]: 72.7 (57.6) mL/min
- CLR, Median (min–max) [7, 13]: 69.8 (8.84–163) mL/min
- CLR, GM [7, 14]: 118 mL/min
- CLR, Mean (SD) [7, 14]: 120 (24.0) mL/min
- CLR, Median (min–max) [7, 14]: 113 (96.7–161) mL/min
- Ae0–24, GM [7, 10]: 13.1 mg
- Ae0–24, Mean (SD) [7, 10]: 16.1 (11.9) mg
- Ae0–24, Median (min–max) [7, 10]: 14.5 (4.77–40.9) mg
- Ae0–24, GM [7, 11]: 4.33 mg
- Ae0–24, Mean (SD) [7, 11]: 5.44 (4.06) mg
- Ae0–24, Median (min–max) [7, 11]: 4.29 (1.46–12.8) mg
- Ae0–24, GM [7, 12]: 1.37 mg
- Ae0–24, Mean (SD) [7, 12]: 1.38 (0.193) mg
- Ae0–24, Median (min–max) [7, 12]: 1.38 (1.24–1.51) mg
- Ae0–24, GM [7, 13]: 3.61 mg
- Ae0–24, Mean (SD) [7, 13]: 5.46 (4.96) mg
- Ae0–24, Median (min–max) [7, 13]: 2.88 (1.24–12.8) mg
- Ae0–24, GM [7, 14]: 10.0 mg
- Ae0–24, Mean (SD) [7, 14]: 13.7 (12.3) mg
- Ae0–24, Median (min–max) [7, 14]: 10.9 (3.47–40.9) mg
